Patent US20110003898A1, “MEDICAL GLUES FOR SURGERY COMPRISING BIOACTIVE COMPOUNDS” (Bayer MaterialScience AG, priority 2008, published 2011)

Assays:
Assay type in all cases: physicochemical
[1] = Film formation on the skin, cure time to disappearance of surface tackiness; settings: adhesive with 2-5% active ingredient; ^2 = suspension
Text: (§1) 0.45 g of PEG 200 were mixed thoroughly with 0.55 g of aspartate B and 2-5% of the active ingredient. The solution was stirred with 4 g of prepolymer A and applied to the tissue. We tested for processing time and the effect of adhesion to meat as well as the formation of a film on the skin.

[2] = Active substance release from adhesive film into physiological saline (HPLC-UV/MS); settings: 37° C., 2 h; for Release: 5x5 cm section (0.5 g) in 20 g physiological saline; for Amount of active substance released [%]: physiological saline
Procedure: For the quantitative determination of the active substance release, a transparent film with a thickness of 200 ? was produced by knife coating from 4 g of prepolymer A, 0.45 g of PEG 200, […] A section measuring 5×5 cm (weight: 0.5 g) was cut from this film, placed in a petri dish, covered with 20 g of physiological saline solution, and stored in an incubator at 37° C. for 2 h. The quantitative determination was carried out via HPLC-UV/MS (HPLC column: Inertsil ODS 3 5 □ 120 A 125 mm*2.1 mm 60° C.; eluent A: 25 mmol ammonium acetate in water, eluent B: 25 mmol ammonium acetate in methanol).

[3] = Pot life (processing time) of adhesive with active ingredient; settings: 0.45 g PEG 200, 0.55 g aspartate B, 2-5% active ingredient, 4 g prepolymer A; ^2 = active substance in suspension
Text: as §1

[4] = 100 mg active substance in film
[5] = 250 mg active substance in film

| SMILES | Film formation cure time [min to disappearance of surface tackiness] [1] [min] | further results |
| --- | --- | --- |
| CC(=O)Nc1ccc(O)cc1 [paracetamol] | 7 | Release [2, 4]: 136 mg/L; Amount of active substance released [%] [2, 4]: 27.2% |
| CC(C)Cc1ccc(C(C)C(=O)O)cc1 (stereo not shown) [ibuprofen] | 6 |  |
| CCOC(=O)c1ccc(N)cc1 [benzocaine] | 6 |  |
| COc1ccc2c(c1)c(CC(=O)OCC(=O)O)c(C)n2C(=O)c1ccc(Cl)cc1 [acemetacine] | 7 |  |
| CC(=O)NS(=O)(=O)c1ccc(N)cc1 [sulfacetamide] | 5 |  |
| O=C1OC(CN2CCOCC2)CN1/N=C/c1ccc([N+](=O)[O-])o1 (stereo not shown) [furaldatone] | 4 |  |
| CCn1cc(C(=O)O)c(=O)c2ccc(C)nc21 [nalidixic acid] | 5 | Release [2, 4]: 110 mg/L; Amount of active substance released [%] [2, 4]: 22% |
| CC(=O)Oc1ccccc1C(=O)O [acetylsalicylic acid] | 4 | Release [2, 5]: 320 mg/L; Amount of active substance released [%] [2, 5]: 25.6% |
| CCN1CCN(c2cc3c(cc2F)c(=O)c(C(=O)O)cn3C2CC2)CC1 [enrofloxazine] | 4 | Pot life [3]: 1 min |
| CCCCNc1ccc(C(=O)OCCN(C)C)cc1 [tetracaine] | 7 |  |
| Cc1ccc(C(C)C)c(O)c1 [thymol] | 5 |  |
| COc1cccc(C2(O)CCCCC2CN(C)C)c1 (stereo not shown) [tramadol] | 4 |  |
| CCN(CC)CC(=O)Nc1c(C)cccc1C [lidocaine] | 4 | Release [2, 5]: 570 mg/L; Amount of active substance released [%] [2, 5]: 45.6% |
| C[C@]12CCC(=O)C=C1CC[C@@H]1[C@@H]2C(=O)C[C@@]2(C)[C@H]1CC[C@]2(O)C(=O)CO [cortisone] | 5 | Release [2, 4]: 230 mg/L; Amount of active substance released [%] [2, 4]: 46% |
| [H]/N=C(\N/C(=N/[H])NCCCCCCNC(=N)NC(=N)Nc1ccc(Cl)cc1)Nc1ccc(Cl)cc1 [chlorhexidine] | 3 | Pot life [3]: 0.5 min |
| Oc1cc(Cl)ccc1Oc1ccc(Cl)cc1Cl [triclosan (Irgasan), 2,4,4′-trichloro-2′-hydroxydiphenyl ether] | 5 |  |
| CC[C@H]1OC(=O)[C@H](C)[C@@H](O[C@H]2C[C@@](C)(OC)[C@@H](O)[C@H](C)O2)[C@H](C)[C@@H](O[C@@H]2O[C@H](C)C[C@H](N(C)C)[C@H]2O)[C@](C)(O)C[C@@H](C)C(=O)[C@H](C)[C@@H](O)[C@]1(C)O [erythromycin] | 6 |  |
| O=C(N[C@H](CO)[C@H](O)c1ccc([N+](=O)[O-])cc1)C(Cl)Cl [chloramphenicol] | 5 | Release [2, 5]: 646 mg/L; Amount of active substance released [%] [2, 5]: 51.7% |
| Cc1ncc([N+](=O)[O-])n1CCO [metronidazole] | 5 | Pot life [3]: 2 min |
| CCCCN1CCCCC1C(=O)Nc1c(C)cccc1C (stereo not shown) [bupivacaine] | 6 |  |
| OC(Cn1cncn1)(Cn1cncn1)c1ccc(F)cc1F [fluconazole] | 15 | Pot life [3]: 3 min |
